The target in series [1] is T1, Cytochrome P450 2C9 (Homo sapiens, UniProt P11712). Kind of series: (§1) CYP Inhibition Assay (Without Preincubation): Without Preincubation: To a 96 deep well plate was added 2.5 uL, of the test substance solution (x200 concentration), 442.5 uL of Incubation Mixture, and 5 uL of the substrate solution, and the solution was mixed and warmed to 37° C. for 5 minutes. To this incubation solution 50 uL of 10 mM NADPH was added to start the reaction, and incubated at 37° C. for 5 minutes. After the incubation, 100 uL of the Incubation Mixture was removed, added to 150 uL of isopropanol containing IS and mixed. […] The filtrate was used for LC-MS/MS analysis.
T1 sequence (P11712 whole entry): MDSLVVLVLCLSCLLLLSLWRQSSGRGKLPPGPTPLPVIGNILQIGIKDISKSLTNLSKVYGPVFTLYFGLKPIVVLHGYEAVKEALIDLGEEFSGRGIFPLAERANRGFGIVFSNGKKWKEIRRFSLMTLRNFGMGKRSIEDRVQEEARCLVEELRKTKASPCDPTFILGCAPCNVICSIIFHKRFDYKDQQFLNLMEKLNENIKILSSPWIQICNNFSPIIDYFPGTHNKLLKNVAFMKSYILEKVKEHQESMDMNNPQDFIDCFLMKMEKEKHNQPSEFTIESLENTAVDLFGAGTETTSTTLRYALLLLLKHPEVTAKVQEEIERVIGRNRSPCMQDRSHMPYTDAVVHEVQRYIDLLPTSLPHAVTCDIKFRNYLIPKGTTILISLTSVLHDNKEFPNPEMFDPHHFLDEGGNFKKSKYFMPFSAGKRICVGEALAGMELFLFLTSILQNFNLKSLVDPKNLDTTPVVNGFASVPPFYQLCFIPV

Series [2] has as its target T2, Cytochrome P450 3A4 (Homo sapiens, UniProt P08684). Described as §1.
In series [3] the target is T1, Cytochrome P450 2C9. Kind of series: (§2) CYP Inhibition Assay (With Preincubation): With Preincubation: To a 96 deep well plate was added 2.5 uL of the test substance solution (x200 concentration), and 442.5 uL of Incubation Mixture, and the solution was mixed and warmed to 37° C. for 5 minutes. To this incubation solution 50 uL of 10 mM NADPH was added and preincubated at 37° C. for 30 minutes. […] After the reaction, 100 uL of the Incubation Mixture was removed, added to 150 uL of isopropanol containing IS and mixed. […] The filtrate was used for LC-MS/MS analysis.

For series [4], the target named is T2, Cytochrome P450 3A4. The series is described as §2.

Structures are written as SMILES.

T2 sequence (P08684 whole entry): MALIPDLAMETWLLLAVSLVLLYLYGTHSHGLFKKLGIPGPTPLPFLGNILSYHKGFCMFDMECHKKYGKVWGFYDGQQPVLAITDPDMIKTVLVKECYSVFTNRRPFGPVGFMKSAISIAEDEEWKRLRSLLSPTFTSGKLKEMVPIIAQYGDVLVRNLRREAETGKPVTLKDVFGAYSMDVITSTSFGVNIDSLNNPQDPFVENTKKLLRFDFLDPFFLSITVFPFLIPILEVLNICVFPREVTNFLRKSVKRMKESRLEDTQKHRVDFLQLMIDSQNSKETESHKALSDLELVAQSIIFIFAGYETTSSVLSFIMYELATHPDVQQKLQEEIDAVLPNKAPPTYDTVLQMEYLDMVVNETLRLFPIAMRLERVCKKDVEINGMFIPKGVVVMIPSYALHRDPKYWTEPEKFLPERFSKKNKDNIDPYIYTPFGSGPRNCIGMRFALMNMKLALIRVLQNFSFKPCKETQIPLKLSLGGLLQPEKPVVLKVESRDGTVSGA

A word on the IC50: it is the concentration needed to halve the response being measured. Turning to `CCCCCCCC(F)(F)CCCCCC/C=C/[C@H](C(O)N[C@@H](Cc1ccc(OCCCC)cc1)C(=O)OC)[C@@](O)(CCOC)C(=O)O` (stereo partly drawn), the IC50 on Cytochrome P450 2C9 [1] was 7.7 µM; at Cytochrome P450 3A4 [2] it was 23.8 µM; on Cytochrome P450 2C9 [3], 19.6 µM; at Cytochrome P450 3A4 [4] it was 11.9 µM.

For the compound `CCCCCCCC(F)(F)CCCCCC/C=C/[C@H](C(O)N[C@@H](Cc1ccc(OCCCC)cc1)C(=O)O)[C@@](O)(CCOC)C(=O)O` (stereo partly drawn), the IC50 at Cytochrome P450 2C9 [1] stood at 12.5 µM; on Cytochrome P450 3A4 [2], 16.2 µM; on Cytochrome P450 2C9 [3], 24.4 µM; at Cytochrome P450 3A4 [4] it was 11.8 µM.

These data come from ChEMBL document CHEMBL3886540, “Orally available viridiofungin derivative possessing anti-HCV activity” (2016).
